Structures are written as SMILES.

Holding throughout (assay type): functional
In one experiment the test system is Escherichia coli. The experiment in a line: Antimicrobial activity against Escherichia coli MTCC 723 assessed as diameter of growth inhibition zone at 500 ug/ml after 24 hr by cup-plate method. The settings on record: MTCC 723, 24 h, read-out: DIZ.
The next experiment deals with Aspergillus oryzae. The experiment is described as follows: Antimicrobial activity against Aspergillus oryzae MTCC 3567 assessed as diameter of growth inhibition zone at 500 ug/ml after 72 hr by cup-plate method. The settings on record: MTCC 3567, 72 h, read-out: DIZ.
The next experiment concerns Aspergillus niger. The experiment is described as follows: Antimicrobial activity against Aspergillus niger MTCC 281 assessed as diameter of growth inhibition zone at 500 ug/ml after 72 hr by cup-plate method. The settings on record: MTCC 281, 72 h, read-out: DIZ.
The subject of another experiment is Pseudomonas aeruginosa. The experiment is described as follows: Antimicrobial activity against Pseudomonas aeruginosa MTCC 1688 assessed as diameter of growth inhibition zone at 500 ug/ml after 24 hr by cup-plate method. As to conditions: MTCC 1688, 24 h, read-out: DIZ.
The test system of another experiment is Aspergillus terreus. The experiment in a line: Antimicrobial activity against Aspergillus terreus MTCC 1782 assessed as diameter of growth inhibition zone at 500 ug/ml after 72 hr by cup-plate method. The settings on record: MTCC 1782, 72 h, read-out: DIZ.
The next experiment deals with Staphylococcus aureus. The experiment is described as follows: Antimicrobial activity against Staphylococcus aureus ATCC 29513 assessed as diameter of growth inhibition zone at 500 ug/ml after 24 hr by cup-plate method. As to conditions: ATCC 29513, 24 h, read-out: DIZ.
The test system of the next experiment is Aspergillus flavus. The experiment in a line: Antimicrobial activity against Aspergillus flavus MTCC 1973 assessed as diameter of growth inhibition zone at 500 ug/ml after 72 hr by cup-plate method. The settings on record: MTCC 1973, 72 h, read-out: DIZ.
A further experiment concerns Klebsiella pneumoniae. The experiment is described as follows: Antimicrobial activity against Klebsiella pneumoniae NCTC 13368 assessed as diameter of growth inhibition zone at 500 ug/ml after 24 hr by cup-plate method. The settings on record: NCTC 13368, 24 h, read-out: DIZ.

As to `Cc1ccc(-c2cc(-c3c(-c4ccccc4)[nH]c4ccccc34)c3c(N)ncnc3n2)cc1`, the zone of inhibition at 500 µg/mL with Escherichia coli came out at 10 mm; with Aspergillus oryzae, 10 mm; in the experiment on Aspergillus niger, 10 mm; in the experiment on Pseudomonas aeruginosa it was 10 mm; in the experiment on Aspergillus terreus it was 8 mm; with Staphylococcus aureus, 11 mm. Moreover, the zone of inhibition at 500 µg/mL worked out at 8 mm with Aspergillus flavus and 11 mm in the experiment on Klebsiella pneumoniae.
Turning to `Cc1ccc2[nH]c(-c3ccccc3)c(-c3cc(-c4ccccc4)nc4ncnc(N)c34)c2c1`, the zone of inhibition at 500 µg/mL amounted to 8 mm in the experiment on Escherichia coli; 6 mm in the experiment with Aspergillus oryzae; 8 mm with Aspergillus niger; 5 mm in the experiment on Pseudomonas aeruginosa; 10 mm in the experiment on Aspergillus terreus; 10 mm in the experiment on Staphylococcus aureus. The zone of inhibition at 500 µg/mL was found to be 11 mm in the experiment with Aspergillus flavus and 6 mm in the experiment with Klebsiella pneumoniae.
Take `Cc1ccc(-c2cc(-c3c(-c4ccccc4)[nH]c4ccccc34)c3c(=O)[nH]cnc3n2)cc1`: the zone of inhibition at 500 µg/mL in the experiment with Escherichia coli came out at 10 mm; in the experiment on Aspergillus oryzae, 6 mm; in the experiment on Aspergillus niger it was 6 mm; in the experiment on Pseudomonas aeruginosa, 10 mm; in the experiment on Aspergillus terreus, 10 mm; with Staphylococcus aureus, 8 mm. The zone of inhibition at 500 µg/mL with Aspergillus flavus is 5 mm; in the experiment on Klebsiella pneumoniae, 11 mm.
In the case of `Cc1ccc2[nH]c(-c3ccccc3)c(-c3cc(-c4ccc(Cl)cc4)nc4ncnc(N)c34)c2c1`, the zone of inhibition at 500 µg/mL in the experiment on Escherichia coli came to 6 mm; in the experiment with Aspergillus oryzae, 8 mm; in the experiment with Aspergillus niger, 10 mm; in the experiment on Pseudomonas aeruginosa, 11 mm; with Aspergillus terreus, 5 mm; with Staphylococcus aureus, 8 mm. For the same compound, the zone of inhibition at 500 µg/mL is 11 mm with Aspergillus flavus and 10 mm with Klebsiella pneumoniae.
On to `Cc1ccc2[nH]c(-c3ccccc3)c(-c3cc(-c4ccccc4)nc4nc[nH]c(=O)c34)c2c1`, for which the zone of inhibition at 500 µg/mL in the experiment with Escherichia coli stood at 5 mm; in the experiment on Aspergillus oryzae, 8 mm; in the experiment on Aspergillus niger it was 9 mm; in the experiment on Pseudomonas aeruginosa, 10 mm; in the experiment on Aspergillus terreus, 10 mm; with Staphylococcus aureus it was 6 mm. The zone of inhibition at 500 µg/mL in the experiment with Aspergillus flavus turned out to be 10 mm; in the experiment with Klebsiella pneumoniae, 9 mm.
For `Cc1ccc(-c2cc(-c3c(-c4ccccc4)[nH]c4ccccc34)c3c(N)n[nH]c3n2)cc1`, the zone of inhibition at 500 µg/mL amounted to 10 mm in the experiment on Escherichia coli; 10 mm in the experiment on Aspergillus oryzae; 5 mm with Aspergillus niger; 9 mm in the experiment on Pseudomonas aeruginosa; 2 mm with Aspergillus terreus; 11 mm with Staphylococcus aureus. Further, the zone of inhibition at 500 µg/mL was 8 mm in the experiment on Aspergillus flavus and 9 mm in the experiment on Klebsiella pneumoniae.
Regarding `Cc1ccc2[nH]c(-c3ccccc3)c(-c3cc(-c4ccc(Cl)cc4)nc4[nH]nc(N)c34)c2c1`, the zone of inhibition at 500 µg/mL in the experiment with Escherichia coli turned out to be 7 mm; with Aspergillus oryzae it was 8 mm; in the experiment on Aspergillus niger it was 10 mm; in the experiment on Pseudomonas aeruginosa, 8 mm; in the experiment with Aspergillus terreus it was 2 mm; in the experiment on Staphylococcus aureus, 10 mm. The zone of inhibition at 500 µg/mL in the experiment with Aspergillus flavus amounted to 11 mm; in the experiment on Klebsiella pneumoniae, 10 mm.
`Cc1ccc(-c2cc(-c3c(-c4ccccc4)[nH]c4ccc(C)cc34)c3c(N)ncnc3n2)cc1`: the zone of inhibition at 500 µg/mL in the experiment with Escherichia coli is 5 mm; in the experiment on Aspergillus oryzae, 8 mm; in the experiment on Aspergillus niger, 10 mm; in the experiment on Pseudomonas aeruginosa, 5 mm; with Aspergillus terreus it was 5 mm; in the experiment on Staphylococcus aureus, 10 mm. Besides, the zone of inhibition at 500 µg/mL is 5 mm with Aspergillus flavus and 6 mm in the experiment on Klebsiella pneumoniae.
With `Nc1ncnc2nc(-c3ccccc3)cc(-c3c(-c4ccccc4)[nH]c4ccccc34)c12`, the zone of inhibition at 500 µg/mL in the experiment with Escherichia coli came to 5 mm; in the experiment with Aspergillus oryzae, 9 mm; in the experiment with Aspergillus niger it was 10 mm; with Pseudomonas aeruginosa it was 9 mm; in the experiment on Aspergillus terreus it was 5 mm; in the experiment on Staphylococcus aureus, 10 mm. The zone of inhibition at 500 µg/mL in the experiment on Aspergillus flavus and in the experiment on Klebsiella pneumoniae was 10 mm each time.
Regarding `CN[C@@H]1[C@H](O[C@H]2[C@H](O[C@H]3[C@H](O)[C@@H](O)[C@H](N=C(N)N)[C@@H](O)[C@@H]3N=C(N)N)O[C@@H](C)[C@]2(O)C=O)O[C@@H](CO)[C@H](O)[C@H]1O` [STREPTOMYCIN], the zone of inhibition at 500 µg/mL in the experiment with Escherichia coli, in the experiment on Pseudomonas aeruginosa, with Staphylococcus aureus and in the experiment with Klebsiella pneumoniae was 13 mm each time.
In the case of `Nc1n[nH]c2nc(-c3ccccc3)cc(-c3c(-c4ccccc4)[nH]c4ccc(Cl)cc34)c12`, the zone of inhibition at 500 µg/mL with Escherichia coli is 8 mm; in the experiment on Aspergillus oryzae, 10 mm; in the experiment with Aspergillus niger, 5 mm; with Pseudomonas aeruginosa it was 5 mm; with Aspergillus terreus, 14 mm; in the experiment with Staphylococcus aureus, 12 mm. For the same compound, the zone of inhibition at 500 µg/mL is 10 mm in the experiment on Aspergillus flavus and 13 mm in the experiment with Klebsiella pneumoniae.
With `OC(Cn1cncn1)(Cn1cncn1)c1ccc(F)cc1F` [FLUCONAZOLE], the zone of inhibition at 500 µg/mL in the experiment with Aspergillus oryzae, in the experiment on Aspergillus niger, with Aspergillus terreus and in the experiment on Aspergillus flavus was 14 mm each time.
As for `Cc1ccc(-c2cc(-c3c(-c4ccccc4)[nH]c4ccc(Cl)cc34)c3c(N)ncnc3n2)cc1`, the zone of inhibition at 500 µg/mL was determined as 9 mm in the experiment with Escherichia coli; 5 mm in the experiment on Aspergillus oryzae; 8 mm with Aspergillus niger; 9 mm in the experiment on Pseudomonas aeruginosa; 4 mm in the experiment on Aspergillus terreus; 10 mm with Staphylococcus aureus. For the same compound, the values for the zone of inhibition at 500 µg/mL in the experiment on Aspergillus flavus and in the experiment with Klebsiella pneumoniae were 10 mm and 9 mm, respectively.
As to `Nc1ncnc2nc(-c3ccc(Cl)cc3)cc(-c3c(-c4ccccc4)[nH]c4ccc(Cl)cc34)c12`, the zone of inhibition at 500 µg/mL in the experiment with Escherichia coli stood at 11 mm; in the experiment on Aspergillus oryzae, 8 mm; in the experiment on Aspergillus niger it was 8 mm; in the experiment with Pseudomonas aeruginosa, 11 mm; in the experiment with Aspergillus terreus, 8 mm; in the experiment on Staphylococcus aureus, 12 mm. Besides, the results for the zone of inhibition at 500 µg/mL in the experiment on Aspergillus flavus and with Klebsiella pneumoniae were 12 mm and 10 mm, respectively.
On to `O=c1[nH]cnc2nc(-c3ccc(Cl)cc3)cc(-c3c(-c4ccccc4)[nH]c4ccccc34)c12`, for which the zone of inhibition at 500 µg/mL is 10 mm in the experiment with Escherichia coli; 10 mm in the experiment on Aspergillus oryzae; 10 mm in the experiment on Aspergillus niger; 2 mm in the experiment on Pseudomonas aeruginosa; 11 mm in the experiment on Aspergillus terreus; 10 mm in the experiment with Staphylococcus aureus. The zone of inhibition at 500 µg/mL in the experiment with Aspergillus flavus was found to be 11 mm; in the experiment with Klebsiella pneumoniae, 8 mm.

The values above are taken from ChEMBL document CHEMBL3045544, “Synthesis, antimicrobial and antioxidant activities of some new indole derivatives containing pyridopyrimidine and pyrazolopyridine moieties” (Med Chem Res, 2013).
